Assay results as given in patent publication US11339130B1 (Blade Therapeutics, Inc., priority 2016, dated 2022).
Where a name gives a salt, the structure may show the parent alone.

Legend:
Type in all cases: biochemical
Human Calpain 9/NS1 = target: T1, Human Calpain 9/NS1 (Homo sapiens, UniProt O14815); test: Calpain inhibition continuous fluorescence (FRET) assay, Human Calpain 9/NS1; conditions: read-out: Human Calpain 9/NS1 IC50
T1 sequence (O14815 1-690): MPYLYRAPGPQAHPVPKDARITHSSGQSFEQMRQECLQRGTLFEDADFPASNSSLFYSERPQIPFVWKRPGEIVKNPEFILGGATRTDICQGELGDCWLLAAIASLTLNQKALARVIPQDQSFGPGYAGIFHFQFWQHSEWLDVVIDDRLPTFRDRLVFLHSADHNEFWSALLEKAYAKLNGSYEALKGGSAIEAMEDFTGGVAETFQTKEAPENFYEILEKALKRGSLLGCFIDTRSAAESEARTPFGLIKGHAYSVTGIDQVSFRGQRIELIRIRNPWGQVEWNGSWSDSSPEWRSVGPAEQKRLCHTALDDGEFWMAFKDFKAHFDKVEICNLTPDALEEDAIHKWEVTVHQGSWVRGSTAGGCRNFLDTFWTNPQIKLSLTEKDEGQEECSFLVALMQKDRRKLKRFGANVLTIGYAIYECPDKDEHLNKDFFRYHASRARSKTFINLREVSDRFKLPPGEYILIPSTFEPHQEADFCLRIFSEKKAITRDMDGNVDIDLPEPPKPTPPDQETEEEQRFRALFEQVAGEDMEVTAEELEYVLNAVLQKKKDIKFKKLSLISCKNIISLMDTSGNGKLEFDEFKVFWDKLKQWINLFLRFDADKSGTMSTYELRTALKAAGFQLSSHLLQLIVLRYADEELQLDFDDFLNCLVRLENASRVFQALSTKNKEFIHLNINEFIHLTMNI
T1 sequence (P04632 1-268 partner): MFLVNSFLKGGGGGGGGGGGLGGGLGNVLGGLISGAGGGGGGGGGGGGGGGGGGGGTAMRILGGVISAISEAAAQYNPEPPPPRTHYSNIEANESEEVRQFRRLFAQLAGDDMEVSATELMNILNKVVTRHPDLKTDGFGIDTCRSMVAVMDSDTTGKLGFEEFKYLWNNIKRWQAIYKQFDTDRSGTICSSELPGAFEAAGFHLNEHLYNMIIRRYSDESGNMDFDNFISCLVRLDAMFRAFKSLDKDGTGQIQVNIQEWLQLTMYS
Summary of the method: (§1)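 Human calpains 1, 2 and 9 preincubated with inhibitor at 25 °C in 50 mM Tris pH 7.5, 100 mM NaCl, 1 mM DTT; reaction started with 5-FAM/QXL 520 FRET peptide plus CaCl2 for activation. Fluorescence (490/520 nm) followed 10 min; rates from 1-5 min slopes fitted to 4-parameter logistic for IC50.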

Human Calpain 2/NS1 = target: T2, Human Calpain 2/NS1 (Homo sapiens, UniProt P17655); test: Calpain inhibition continuous fluorescence (FRET) assay, Human Calpain 2/NS1; conditions: read-out: Human Calpain 2/NS1 IC50
T2 sequence (P17655 1-700): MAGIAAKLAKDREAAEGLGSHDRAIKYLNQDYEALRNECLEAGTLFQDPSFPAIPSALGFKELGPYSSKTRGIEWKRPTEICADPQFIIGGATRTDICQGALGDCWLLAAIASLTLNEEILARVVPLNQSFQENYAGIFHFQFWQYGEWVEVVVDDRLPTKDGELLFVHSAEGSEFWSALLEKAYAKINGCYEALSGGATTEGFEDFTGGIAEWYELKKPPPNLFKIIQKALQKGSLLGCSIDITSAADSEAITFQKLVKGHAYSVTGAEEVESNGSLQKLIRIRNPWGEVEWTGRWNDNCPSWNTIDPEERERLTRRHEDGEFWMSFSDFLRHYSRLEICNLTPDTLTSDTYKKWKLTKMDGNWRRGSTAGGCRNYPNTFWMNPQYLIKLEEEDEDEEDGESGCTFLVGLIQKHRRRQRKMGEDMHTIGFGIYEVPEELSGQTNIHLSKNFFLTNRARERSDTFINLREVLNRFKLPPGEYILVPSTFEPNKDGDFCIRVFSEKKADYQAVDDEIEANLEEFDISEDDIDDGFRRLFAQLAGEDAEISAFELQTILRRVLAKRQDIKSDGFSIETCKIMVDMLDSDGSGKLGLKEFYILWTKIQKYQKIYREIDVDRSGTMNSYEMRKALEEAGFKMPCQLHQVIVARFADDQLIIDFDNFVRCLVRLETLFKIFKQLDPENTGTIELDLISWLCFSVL
T2 sequence (P04632 1-268 partner): T1 sequence (P04632 1-268 partner)
Summary of the method: as §1

Human Calpain 1/NS1 = target: T3, Human Calpain 1/NS1 (Homo sapiens, UniProt P07384); test: Calpain inhibition continuous fluorescence (FRET) assay, Human Calpain 1/NS1; conditions: read-out: Human Calpain 1/NS1 IC50
T3 sequence (P07384 1-714): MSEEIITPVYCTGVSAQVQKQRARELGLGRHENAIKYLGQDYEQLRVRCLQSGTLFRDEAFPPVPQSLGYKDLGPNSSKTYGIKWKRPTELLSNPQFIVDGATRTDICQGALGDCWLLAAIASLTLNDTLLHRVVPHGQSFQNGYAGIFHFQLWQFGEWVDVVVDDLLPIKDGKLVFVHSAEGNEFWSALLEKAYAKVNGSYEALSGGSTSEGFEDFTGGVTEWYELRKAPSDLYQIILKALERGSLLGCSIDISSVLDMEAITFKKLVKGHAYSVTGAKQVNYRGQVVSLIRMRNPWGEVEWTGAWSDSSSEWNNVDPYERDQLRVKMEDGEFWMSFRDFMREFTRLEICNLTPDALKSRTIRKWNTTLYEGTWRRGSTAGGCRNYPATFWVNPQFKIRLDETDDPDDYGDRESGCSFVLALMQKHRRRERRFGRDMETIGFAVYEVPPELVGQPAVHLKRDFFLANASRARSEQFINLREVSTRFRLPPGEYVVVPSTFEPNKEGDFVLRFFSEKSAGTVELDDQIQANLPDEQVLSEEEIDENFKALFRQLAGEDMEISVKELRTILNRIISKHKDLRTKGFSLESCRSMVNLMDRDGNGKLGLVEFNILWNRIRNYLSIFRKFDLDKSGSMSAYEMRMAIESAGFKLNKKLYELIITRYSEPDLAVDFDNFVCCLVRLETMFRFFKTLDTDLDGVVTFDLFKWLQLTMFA
T3 sequence (P04632 1-268 partner): T1 sequence (P04632 1-268 partner)
Summary of the method: as §1

Row | Structure (SMILES) | IC50 (Human Calpain 9/NS1) | IC50 (Human Calpain 2/NS1) | IC50 (Human Calpain 1/NS1)
1 | Cc1cc(C(=O)NC(Cc2ccccc2)C(=O)C(N)=O)n(-c2ccncn2)n1 (stereo not drawn) [Compound 409, N-(4-amino-3,4-dioxo-1-phenylbutan-2-yl)-3-methyl-1-(pyrimidin-4-yl)-1H-pyrazole-5-carboxamide] | < 3 µM | < 3 µM | < 3 µM
2 | NC(=O)C(=O)C(Cc1ccccc1)NC(=O)c1c(C(F)(F)F)cnn1-c1ncccn1 (stereo not drawn) [Compound 410, N-(4-amino-3,4-dioxo-1-phenylbutan-2-yl)-1-(pyrimidin-2-yl)-4-(trifluoromethyl)-1H-pyrazole-5-carboxamide] | 3 to 10 µM | 3 to 10 µM | 3 to 10 µM
3 | Cc1cc(C(=O)NC(Cc2ccccc2)C(=O)C(N)=O)c(-c2nc3ccccc3[nH]2)s1 (stereo not drawn) [Compound 429, N-(4-amino-3,4-dioxo-1-phenylbutan-2-yl)-2-(1H-benzo[d]imidazol-2-yl)-5-methylthiophene-3-carboxamide] | < 3 µM | < 3 µM | < 3 µM
4 | Cn1cc(C(=O)NC(Cc2ccccc2)C(=O)C(N)=O)c(-c2n[nH]c3ccccc23)n1 (stereo not drawn) [Compound 482, N-(4-amino-3,4-dioxo-1-phenylbutan-2-yl)-3-(1H-indazol-3-yl)-1-methyl-1H-pyrazole-4-carboxamide] | < 3 µM | 3 to 10 µM | 3 to 10 µM
5 | COc1cccc(-c2nn(C)cc2C(=O)NC(Cc2ccccc2)C(=O)C(N)=O)n1 (stereo not drawn) [Compound 487, N-(4-amino-3,4-dioxo-1-phenylbutan-2-yl)-3-(6-methoxypyridin-2-yl)-1-methyl-1H-pyrazole-4-carboxamide] | < 3 µM | < 3 µM | 3 to 10 µM
6 | Cn1ncc(C(=O)NC(Cc2ccccc2)C(=O)C(N)=O)c1Cc1ccccc1 (stereo not drawn) [Compound 488, N-(4-amino-3,4-dioxo-1-phenylbutan-2-yl)-5-benzyl-1-methyl-1H-pyrazole-4-carboxamide] | 3 to 10 µM | 3 to 10 µM | 3 to 10 µM
7 | Cc1cnc(C(=O)NC(Cc2ccccc2)C(=O)C(N)=O)n1-c1ccccc1 (stereo not drawn) [Compound 490, N-(4-amino-3,4-dioxo-1-phenylbutan-2-yl)-5-methyl-1-phenyl-1H-imidazole-2-carboxamide] | < 3 µM | 3 to 10 µM | > 10 µM
8 | NC(=O)C(=O)C(Cc1ccccc1)NC(=O)c1cnoc1Cc1ccccc1 (stereo not drawn) [Compound 491, N-(4-amino-3,4-dioxo-1-phenylbutan-2-yl)-5-benzylisoxazole-4-carboxamide] | 3 to 10 µM | < 3 µM | < 3 µM
9 | Cn1cc(C(=O)NC(Cc2ccccc2)C(=O)C(N)=O)c(N2CCS(=O)(=O)CC2)n1 (stereo not drawn) [Compound 613, N-(4-amino-3,4-dioxo-1-phenylbutan-2-yl)-3-(1,1-dioxidothiomorpholino)-1-methyl-1H-pyrazole-4-carboxamide] | < 3 µM | 3 to 10 µM | 3 to 10 µM
10 | Cn1cc(C(=O)NC(Cc2ccccc2)C(=O)C(N)=O)c(N2CCOCC2)n1 (stereo not drawn) [Compound 614, N-(4-amino-3,4-dioxo-1-phenylbutan-2-yl)-1-methyl-3-morpholino-1H-pyrazole-4-carboxamide] | 3 to 10 µM | 3 to 10 µM | 3 to 10 µM
11 | Cn1cc(C(=O)NC(Cc2ccccc2)C(=O)C(N)=O)c(-c2cccs2)n1 (stereo not drawn) [Compound 615, N-(4-amino-3,4-dioxo-1-phenylbutan-2-yl)-1-methyl-3-(thiophen-2-yl)-1H-pyrazole-4-carboxamide] | < 3 µM | < 3 µM | < 3 µM
12 | Cn1cc(C(=O)NC(Cc2ccccc2)C(=O)C(N)=O)c(C2CC2)n1 (stereo not drawn) [Compound 616, N-(4-amino-3,4-dioxo-1-phenylbutan-2-yl)-3-cyclopropyl-1-methyl-1H-pyrazole-4-carboxamide] | 3 to 10 µM | < 3 µM | 3 to 10 µM
13 | Cn1cc(C(=O)NC(Cc2ccccc2)C(=O)C(N)=O)c(C2CCOCC2)n1 (stereo not drawn) [Compound 617, N-(4-amino-3,4-dioxo-1-phenylbutan-2-yl)-1-methyl-3-(tetrahydro-2H-pyran-4-yl)-1H-pyrazole-4-carboxamide] | < 3 µM | < 3 µM | 3 to 10 µM
14 | Cc1nc(-c2cccc3c2OC(F)(F)O3)c(C(=O)NC(Cc2ccccc2)C(=O)C(N)=O)o1 (stereo not drawn) [Compound 618, N-(4-amino-3,4-dioxo-1-phenylbutan-2-yl)-4-(2,2-difluorobenzo[d][1,3]dioxol-4-yl)-2-methyloxazole-5-carboxamide] | < 3 µM | < 3 µM | < 3 µM
15 | COc1ccc(F)c(-c2oncc2C(=O)NC(Cc2ccccc2)C(=O)C(N)=O)c1 (stereo not drawn) [Compound 619, N-(4-amino-3,4-dioxo-1-phenylbutan-2-yl)-5-(2-fluoro-5-methoxyphenyl)isoxazole-4-carboxamide] | < 3 µM | < 3 µM | < 3 µM
16 | Cn1cc(C(=O)NC(Cc2ccccc2)C(=O)C(N)=O)c(C2CCCC2)n1 (stereo not drawn) [Compound 620, N-(4-amino-3,4-dioxo-1-phenylbutan-2-yl)-3-cyclopentyl-1-methyl-1H-pyrazole-4-carboxamide] | 3 to 10 µM | < 3 µM | < 3 µM
17 | Cn1cc(C(=O)NC(Cc2ccccc2)C(=O)C(N)=O)c(-c2ccc(Cl)s2)n1 (stereo not drawn) [Compound 621, N-(4-amino-3,4-dioxo-1-phenylbutan-2-yl)-3-(5-chlorothiophen-2-yl)-1-methyl-1H-pyrazole-4-carboxamide] | < 3 µM | < 3 µM | < 3 µM
18 | NC(=O)C(=O)C(Cc1ccccc1)NC(=O)c1cn(C(F)F)nc1-c1ccc2ncccc2c1 (stereo not drawn) [Compound 622, N-(4-amino-3,4-dioxo-1-phenylbutan-2-yl)-1-(difluoromethyl)-3-(quinolin-6-yl)-1H-pyrazole-4-carboxamide hydrochloride] | < 3 µM | < 3 µM | < 3 µM
19 | Cn1cc(C(=O)NC(Cc2cccc(C(F)(F)F)c2)C(=O)C(N)=O)c(-c2ccccc2F)n1 (stereo not drawn) [Compound 623, N-(4-amino-3,4-dioxo-1-(3-(trifluoromethyl)phenyl)butan-2-yl)-3-(2-fluorophenyl)-1-methy 1-1H-pyrazole-4-carboxamide] | < 3 µM | < 3 µM | < 3 µM
